Experimental data as given in patent US11000033B2, “Ketone or oxime compound, and herbicide” (NISSAN CHEMICAL CORPORATION, priority 2014, dated 2021).

Legend:
Assay type in all cases: in vivo
[1] = system: Veronica persica; assay: Test Example 4: herbicidal effect by soil treatment (symbol R); settings: for R: Veronica persica, herbicidal effect grade: 320 g/ha
Outline: (§1)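 Seeds were sown in sterilized diluvial soil, covered with about 1.5 cm of soil, and the soil surface was sprayed with a water-diluted emulsion of the compound at a predetermined rate. Plants grew in a greenhouse at 25° C. to 30° C.; effects were scored visually 3 weeks after application.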

[2] = system: Veronica persica; assay: Test Example 5: herbicidal effect by foliage application, plastic box (symbol R); settings: 320 g/ha, 3 weeks after application
Outline: (§2)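 After sowing into sterilized diluvial soil and growing two weeks under glass at 25° C. to 30° C., seedlings receive a uniform foliar spray of diluted emulsion. Damage is judged visually three weeks on.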

[3] = system: Monochoria vaginalis; assay: Test Example 1: herbicidal activity, application before weed generation in submerged conditions (symbol C); settings: application herbicide amount 320 g/ha
Outline: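 Paddy pre-emergence test. Formulated emulsion, water-diluted to a predetermined rate, is applied to floodwater on sowing day; rice transplanted at 2.5 leaves. Effect read at 3 weeks on a 0–5 herbicidal-ratio scale.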

[4] = system: Chenopodium album; assay: Test Example 5: herbicidal effect by foliage application, plastic box (symbol O); settings: 320 g/ha, 3 weeks after application
Outline: as §2

[5] = system: Amaranthus retroflexus; assay: Test Example 5: herbicidal effect by foliage application, plastic box (symbol N); settings: 320 g/ha, 3 weeks after application
Outline: as §2

[6] = system: Setaria viridis; assay: Test Example 4: herbicidal effect by soil treatment (symbol G); settings: for G: Setaria viridis, herbicidal effect grade: 320 g/ha
Outline: as §1

[7] = system: rapeseed; assay: Test Example 4: effect on crop by soil treatment (symbol g); settings: for g: rapeseed, effect grade on crop: 320 g/ha
Outline: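 Grown at 25° C. to 30° C. in a greenhouse, the crops came from seed sown spot-wise in sterilized diluvial soil under roughly 1.5 cm of covering soil.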

[8] = system: Chenopodium album; assay: Test Example 4: herbicidal effect by soil treatment (symbol O); settings: for O: Chenopodium album, herbicidal effect grade: 320 g/ha
Outline: as §1

[9] = application herbicide amount 320 g/ha

| SMILES | R: Veronica persica, herbicidal effect grade [1] | R: Veronica persica, herbicidal effect (criteria 0-5) [2] | Herbicidal effect grade, C: Monochoria vaginalis [3] | O: Chenopodium album, herbicidal effect (criteria 0-5) [4] | N: Amaranthus retroflexus, herbicidal effect (criteria 0-5) [5] | G: Setaria viridis, herbicidal effect grade [6] | g: rapeseed, effect grade on crop [7] | O: Chenopodium album, herbicidal effect grade [8] | R (Veronica persica) herbicidal effect grade [1, 9] | R: Veronica persica, herbicidal effect grade [2] | O: Chenopodium album, herbicidal effect grade [4] | N: Amaranthus retroflexus, herbicidal effect grade [5] | G (Setaria viridis) herbicidal effect grade [6, 9] | g (rapeseed) effect on crop grade [7, 9] | O (Chenopodium album) herbicidal effect grade [8, 9] | Herbicidal effect grade, R: Veronica persica [1, 9] | Herbicidal effect grade, G: Setaria viridis [6, 9] | Effect on crop grade, g: rapeseed [7, 9] | Herbicidal effect grade, O: Chenopodium album [8, 9] |
| --- | --- | --- | --- | --- | --- | --- | --- | --- | --- | --- | --- | --- | --- | --- | --- | --- | --- | --- | --- |
| CON=C(C)CC1CC(OC(=O)C2=CCCC2)=C(c2c(C)cc(C)cc2C)C1=O (stereo not shown) [1-088] | 0 (Herbicidal ratio of 5% or lower (almost no effect)) | 3 (Herbicidal ratio of 40% or higher and lower than 70%) | 0 (Herbicidal ratio of 5% or lower (almost no effect)) | 2 (Herbicidal ratio of 20% or higher and lower than 40%) | 1 (Herbicidal ratio of 5% or higher and lower than 20%) | 5 (Herbicidal ratio of 90% or more (almost completely withered)) | 4 (Herbicidal ratio of 70% or higher and lower than 90%) | 0 (Herbicidal ratio of 5% or lower (almost no effect)) |  |  |  |  |  |  |  |  |  |  |  |
| C=CC(CC1CC(O)=C(c2c(C)cc(C)cc2C)C1=O)=NOC (stereo not shown) [1-086] | 0 (Herbicidal ratio of 5% or lower (almost no effect)) | 2 (Herbicidal ratio of 20% or higher and lower than 40%) | 0 (Herbicidal ratio of 5% or lower (almost no effect)) | 0 (Herbicidal ratio of 5% or lower (almost no effect)) | 0 (Herbicidal ratio of 5% or lower (almost no effect)) | 4 (Herbicidal ratio of 70% or higher and lower than 90%) | 2 (Herbicidal ratio of 20% or higher and lower than 40%) | 0 (Herbicidal ratio of 5% or lower (almost no effect)) |  |  |  |  |  |  |  |  |  |  |  |
| CON=C(C)CC1CC(OC(=O)COc2ccc(Br)cc2)=C(c2c(C)cc(C)cc2C)C1=O (stereo not shown) [1-081] | 0 (Herbicidal ratio of 5% or lower (almost no effect)) | 0 (Herbicidal ratio of 5% or lower (almost no effect)) | 2 (Herbicidal ratio of 20% or higher and lower than 40%) | 3 (Herbicidal ratio of 40% or higher and lower than 70%) | 5 (Herbicidal ratio of 90% or more (almost completely withered)) | 5 (Herbicidal ratio of 90% or more (almost completely withered)) | 4 (Herbicidal ratio of 70% or higher and lower than 90%) | 0 (Herbicidal ratio of 5% or lower (almost no effect)) |  |  |  |  |  |  |  |  |  |  |  |
| CON=C(CC1CC(O)=C(c2c(C)cc(C)cc2C)C1=O)C1CCCCC1 (stereo not shown) [1-085] | 0 (Herbicidal ratio of 5% or lower (almost no effect)) | 0 (Herbicidal ratio of 5% or lower (almost no effect)) | 0 (Herbicidal ratio of 5% or lower (almost no effect)) | 0 (Herbicidal ratio of 5% or lower (almost no effect)) | 0 (Herbicidal ratio of 5% or lower (almost no effect)) | 5 (Herbicidal ratio of 90% or more (almost completely withered)) | 0 (Herbicidal ratio of 5% or lower (almost no effect)) | 0 (Herbicidal ratio of 5% or lower (almost no effect)) |  |  |  |  |  |  |  |  |  |  |  |
| CON=C(C)CC1CC(OC(=O)COc2ccc3ccccc3c2)=C(c2c(C)cc(C)cc2C)C1=O (stereo not shown) [1-083] | 0 (Herbicidal ratio of 5% or lower (almost no effect)) | 0 (Herbicidal ratio of 5% or lower (almost no effect)) | 1 (Herbicidal ratio of 5% or higher and lower than 20%) | 0 (Herbicidal ratio of 5% or lower (almost no effect)) | 4 (Herbicidal ratio of 70% or higher and lower than 90%) | 5 (Herbicidal ratio of 90% or more (almost completely withered)) | 4 (Herbicidal ratio of 70% or higher and lower than 90%) | 0 (Herbicidal ratio of 5% or lower (almost no effect)) |  |  |  |  |  |  |  |  |  |  |  |
| CON=C(C)CC1CC(OC(=O)C(C)Oc2ccccc2)=C(c2c(C)cc(C)cc2C)C1=O (stereo not shown) [1-060] |  |  | 3 (Herbicidal ratio of 40% or higher and lower than 70%) |  |  |  |  |  | 0 (Herbicidal ratio of 5% or lower (almost no effect)) | 3 (Herbicidal ratio of 40% or higher and lower than 70%) | 3 (Herbicidal ratio of 40% or higher and lower than 70%) | 0 (Herbicidal ratio of 5% or lower (almost no effect)) | 5 (Herbicidal ratio of 90% or more (almost completely withered)) | 3 (Herbicidal ratio of 40% or higher and lower than 70%) | 0 (Herbicidal ratio of 5% or lower (almost no effect)) |  |  |  |  |
| CON=C(CC1CC(O)=C(c2c(C)cc(Br)cc2C)C1=O)C1CC1 (stereo not shown) [9-002] |  |  | 0 (Herbicidal ratio of 5% or lower (almost no effect)) |  |  |  |  |  |  | 1 (Herbicidal ratio of 5% or higher and lower than 20%) | 0 (Herbicidal ratio of 5% or lower (almost no effect)) | 3 (Herbicidal ratio of 40% or higher and lower than 70%) |  |  |  | 0 (Herbicidal ratio of 5% or lower (almost no effect)) | 5 (Herbicidal ratio of 90% or more (almost completely withered)) | 0 (Herbicidal ratio of 5% or lower (almost no effect)) | 0 (Herbicidal ratio of 5% or lower (almost no effect)) |
| CON=C(C)CC1CC(OC(=O)COc2ccc(C=O)cc2)=C(c2c(C)cc(C)cc2C)C1=O (stereo not shown) [1-079] | 0 (Herbicidal ratio of 5% or lower (almost no effect)) | 3 (Herbicidal ratio of 40% or higher and lower than 70%) | 3 (Herbicidal ratio of 40% or higher and lower than 70%) | 0 (Herbicidal ratio of 5% or lower (almost no effect)) | 0 (Herbicidal ratio of 5% or lower (almost no effect)) | 5 (Herbicidal ratio of 90% or more (almost completely withered)) | 4 (Herbicidal ratio of 70% or higher and lower than 90%) | 0 (Herbicidal ratio of 5% or lower (almost no effect)) |  |  |  |  |  |  |  |  |  |  |  |
| CON=C(C)CC1CC(OC(=O)COCc2ccccc2)=C(c2c(C)cc(C)cc2C)C1=O (stereo not shown) [1-094] | 0 (Herbicidal ratio of 5% or lower (almost no effect)) | 3 (Herbicidal ratio of 40% or higher and lower than 70%) | 1 (Herbicidal ratio of 5% or higher and lower than 20%) | 0 (Herbicidal ratio of 5% or lower (almost no effect)) | 2 (Herbicidal ratio of 20% or higher and lower than 40%) | 5 (Herbicidal ratio of 90% or more (almost completely withered)) | 4 (Herbicidal ratio of 70% or higher and lower than 90%) | 0 (Herbicidal ratio of 5% or lower (almost no effect)) |  |  |  |  |  |  |  |  |  |  |  |
| CCCCCCCON=C(C)CC1CC(O)=C(c2c(C)cc(C)cc2C)C1=O (stereo not shown) [1-054] |  |  | 0 (Herbicidal ratio of 5% or lower (almost no effect)) |  |  |  |  |  | 0 (Herbicidal ratio of 5% or lower (almost no effect)) | 0 (Herbicidal ratio of 5% or lower (almost no effect)) | 0 (Herbicidal ratio of 5% or lower (almost no effect)) | 0 (Herbicidal ratio of 5% or lower (almost no effect)) | 5 (Herbicidal ratio of 90% or more (almost completely withered)) | 1 (Herbicidal ratio of 5% or higher and lower than 20%) | 0 (Herbicidal ratio of 5% or lower (almost no effect)) |  |  |  |  |
| CON=C(C)CC1CC(OC(=O)C2=C(Br)CCC2)=C(c2c(C)cc(C)cc2C)C1=O (stereo not shown) [1-089] | 0 (Herbicidal ratio of 5% or lower (almost no effect)) | 3 (Herbicidal ratio of 40% or higher and lower than 70%) | 3 (Herbicidal ratio of 40% or higher and lower than 70%) | 1 (Herbicidal ratio of 5% or higher and lower than 20%) | 2 (Herbicidal ratio of 20% or higher and lower than 40%) | 5 (Herbicidal ratio of 90% or more (almost completely withered)) | 4 (Herbicidal ratio of 70% or higher and lower than 90%) | 0 (Herbicidal ratio of 5% or lower (almost no effect)) |  |  |  |  |  |  |  |  |  |  |  |
